According to US20060089375A1, “Pyrazolo[3,4-b] pyridine compounds, and their use as phosphodiesterase inhibitors” (priority 2002, published 2006):

What follows are compounds tested against T1, PDE4B (human recombinant) (Homo sapiens, UniProt Q07343) (assay: Inhibition of PDE4B activity: radioactive SPA or IMAP Fluorescence Polarisation (FP) assay). Settings: PDE4B inhibitory activity, one reading or average of ca. 2-6 readings, read-out: PDE4B pIC50 (± about 0.5) (converted).
T1 construct: made in house
T1 sequence (Q07343 1-564 isoform Q07343-2): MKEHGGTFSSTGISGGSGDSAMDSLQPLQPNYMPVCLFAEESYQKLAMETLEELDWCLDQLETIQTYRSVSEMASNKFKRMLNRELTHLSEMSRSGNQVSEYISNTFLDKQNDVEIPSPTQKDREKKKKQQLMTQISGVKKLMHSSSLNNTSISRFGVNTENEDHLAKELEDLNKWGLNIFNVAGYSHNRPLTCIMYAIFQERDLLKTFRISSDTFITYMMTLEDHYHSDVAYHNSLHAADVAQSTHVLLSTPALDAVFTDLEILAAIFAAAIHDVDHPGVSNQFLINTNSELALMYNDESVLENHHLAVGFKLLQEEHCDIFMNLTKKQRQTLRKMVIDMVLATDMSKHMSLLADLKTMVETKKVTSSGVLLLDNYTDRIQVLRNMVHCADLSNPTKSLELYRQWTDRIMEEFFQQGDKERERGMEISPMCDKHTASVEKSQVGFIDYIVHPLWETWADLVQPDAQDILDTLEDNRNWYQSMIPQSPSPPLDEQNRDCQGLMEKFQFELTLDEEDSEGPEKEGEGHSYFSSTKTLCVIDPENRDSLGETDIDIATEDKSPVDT
Format: biochemical
Source text: Human recombinant PDE4B, in particular the 2B splice variant thereof (HSPDE4B2B), is disclosed in WO 94/20079 and also M. M. McLaughlin et al., “A low Km, rolipram-sensitive, cAMP-specific phosphodiesterase from human brain: cloning and expression of cDNA, biochemical characterisation of recombinant protein, and tissue distribution of mRNA”, J. Biol. Chem., 1993, 268, 6470-6476. For example, in Example 1 of WO 94/20079, human recombinant PDE4B is described as being expressed in the PDE-deficient yeast Saccharomyces cerevisiae strain GL62, e.g. after induction by addition of 150 uM CuSO4, and 100,000×g supernatant fractions of yeast cell lysates are described for use in the harvesting of PDE4B enzyme.
The ability of compounds to inhibit catalytic activity at PDE4B or 4D (human recombinant), PDE3 (from bovine aorta), PDE5 (human recombinant) or PDE6 (from bovine retina) was determined by Scintillation Proximity Assay (SPA) in 96-well format. Test compounds (preferably as a solution in DMSO, e.g. 0.5 to 1 microlitre (ul) volume) were preincubated at ambient temperature (room temperature, e.g. 19-23° C.) in Wallac Isoplates (code 1450-514) with PDE enzyme in 50 mM Tris-HCl buffer pH 7.5, 8.3 mM MgCl2, 1.7 mM EGTA, 0.05% (w/v) bovine serum albumin for 10-30 minutes (usually 30 minutes). The enzyme concentration was adjusted so that no more than 20% hydrolysis of the substrate defined below occurred in control wells without compound, during the incubation. For the PDE3, PDE4B and PDE4D assays, [5′,8-^3H]Adenosine 3′,5′-cyclic phosphate (Amersham Pharmacia Biotech, code TRK.559; or Amersham Biosciences UK Ltd, Pollards Wood, Chalfont St Giles, Buckinghamshire HP8 4SP, UK) was added to give 0.05 uCi per well and ˜10 nM final concentration. For the PDE5 and PDE6 assays, [8-^3H]Guanosine 3′,5′-cyclic phosphate (Amersham Pharmacia Biotech, code TRK.392) was added to give 0.05 uCi per well and ˜36 nM final concentration. Plates, e.g. containing approx. 100 ul volume of assay mixture, were mixed on an orbital shaker for 5 minutes and incubated at ambient temperature for 1 hour. Phosphodiesterase SPA beads (Amersham Pharmacia Biotech, code RPNQ 0150) were added ([…] per well) to terminate the assay. Plates were sealed and shaken and allowed to stand at ambient temperature for 35 minutes to 1 hour (preferably 35 minutes) to allow the beads to settle. Bound radioactive product was measured using a WALLAC TRILUX 1450 Microbeta scintillation counter. For inhibition curves, 10 concentrations (1.5 nM-30 uM) of each compound were assayed. Curves were analysed using ActivityBase and XLfit (ID. Business Solutions Limited, 2 Ocean Court, Surrey Research Park, Guildford, Surrey GU2 7QB, United Kindgom) Results were expressed as pIC50 values.
The ability of compounds to inhibit catalytic activity at PDE4B (human recombinant) or PDE4D (human recombinant) was determined by IMAP Fluorescence Polarisation ([…]) assay (IMAP Explorer kit, available from Molecular Devices Corporation, Sunnydale, Calif., USA; Molecular Devices code: R^8062) in 384-well format. The IMAP FP assay is able to measure PDE activity in an homogenous, non-radioactive assay format. The FP assay uses the ability of immobilised trivalent metal cations, coated onto nanoparticles (tiny beads), to bind the phosphate group of Fl-AMP that is produced on the hydrolysis of fluorescein-labelled (Fl) cyclic adenosine mono-phosphate (Fl-cAMP) to the non-cyclic Fl-AMP form. […] Binding of Fl-AMP product to the beads (coated with the immobilised trivalent cations) slows the rotation of the bound Fl-AMP and leads to an increase in the fluorescence polarisation ratio of parallel to perpendicular light. Inhibition of the PDE reduces/inhibits this signal increase. […]
Work on `CCOC(=O)c1cnc2c(cnn2CC)c1NC1CCSC1` (racemic) [Example 11, Ethyl 1-ethyl-4-(tetrahydrothien-3-ylamino)-1H-pyrazolo[3,4-b]pyridine-5-carboxylate] yielded an IC50 of 39.8 nM. `CCOC(=O)c1cnc2c(cnn2CC)c1NC1CCCC1` [Example 1, Ethyl 4-(cyolopentylamino)-1-ethyl-1H-pyrazolo[3,4-b]pyridine-5-carboxylate] gave an IC50 of 12.6 to 100 nM. Compound `CCOC(=O)c1cnc2c(cnn2CC)c1NC1CCCCC1` [Example 2, Ethyl 4-(cyclohexylamino)-1-ethyl-1H-pyrazolo[3,4-b]pyridine-5-carboxylate] has an IC50 of 10 nM. In the case of `CCOC(=O)c1cnc2c(cnn2CC)c1NC1CCOCC1` [Example 3, Ethyl 1-ethyl-4-(tetrahydro-2H-pyran-4-ylamino)-1H-pyrazolo[3,4-b]pyridine-5-carboxylate], the IC50 is reported as 15.8 nM. `CCOC(=O)c1cnc2c(cnn2C)c1NC1CCCC1` [Example 6] was tested, and the IC50 was 251 nM. `CCn1ncc2c(NC3CCCCC3)c(C(=O)NCc3ccncc3)cnc21` [Example 32, 4-(Cyolohexylamino)-1-ethyl-N-(pyridin-4-ylmethyl)-1H-pyrazolo[3,4-b]pyridine-5-carboxamide] gave an IC50 of 20 nM. With `CCn1ncc2c(NC3CCOCC3)c(C(N)=O)cnc21` [Example 36, 1-Ethyl-4-(tetrahydro-2H-pyran-4-ylamino)-1H-pyrazolo[3,4-b]pyridine-5-carboxamide] the IC50 was 12.6 to 100 nM. Compound `CCn1ncc2c(NC3CCCC3)c(C(=O)NCc3ccccc3)cnc21` [Example 39, N-Benzyl-4-(cyclopentylamino)-1-ethyl-1H-pyrazolo[3,4-b]pyridine-5-carboxamide] has an IC50 of 12.6 to 100 nM. `CCn1ncc2c(NC3CCCCC3)c(C(=O)NCc3ccccc3)cnc21` [Example 40, N-Benzyl-4-(cyclohexylamino)-1-ethyl-1H-pyrazolo[3,4-b]pyridine-5-carboxamide] showed an IC50 of 5.01 nM. `CCn1ncc2c(NC3CCN(C(C)=O)CC3)c(C(=O)NCc3ccccc3)cnc21` [Example 41, 4-[(1-Acetylpiperidin-4-yl)amino]-N-benzyl-1-ethyl-1H-pyrazolo[3,4-b]pyridine-5-carboxamide] was tested, and the IC50 was 12.6 to 100 nM. `CCC(CC)CNC(=O)c1cnc2c(cnn2CC)c1NC1CCCC1` [Example 42, 4-(Cyclopentylamino)-1-ethyl-N-(2-ethylbutyl)-1H-pyrazolo[3,4-b]pyridine-5-carboxamide] gave an IC50 of 12.6 to 100 nM. `CCC(CC)CNC(=O)c1cnc2c(cnn2CC)c1NC1CCCCC1` [Example 43, 4-(Cyclohexylamino)-1-ethyl-N-(2-ethylbutyl)-1H-pyrazolo[3,4-b]pyridine-5-carboxamide] was tested, and the IC50 was 12.6 to 100 nM. For `CCC(CC)CNC(=O)c1cnc2c(cnn2CC)c1NC1CCOCC1` [Example 44, 1-Ethyl-N-(2-ethylbutyl)-4-(tetrahydro-2H-pyran-4-ylamino)-1H-pyrazolo[3,4-b]pyridine-5-carboxamide], the IC50 was 12.6 to 100 nM. `CCn1ncc2c(NC3CCCC3)c(C(=O)Nc3ccc(F)cc3)cnc21` [Example 47, 4-(Cyclopentylamino)-1-ethyl-N-(4-fluorophenyl)-1H-pyrazolo[3,4-b]pyridine-5-carboxamide] gave an IC50 of 12.6 to 100 nM. Work on `CCn1ncc2c(NC3CCCCC3)c(C(=O)Nc3ccc(F)cc3)cnc21` [Example 48, 4-(Cyclohexylamino)-1-ethyl-N-(4-fluorophenyl)-1H-pyrazolo[3,4-b]pyridine-5-carboxamide] yielded an IC50 of 12.6 to 100 nM. In the case of `Cn1ncc2c(NC3CCOCC3)c(C(=O)NCc3ccccc3)cnc21` [Example 63, N-Benzyl-1-methyl-4-(tetrahydro-2H-pyran-4-ylamino)-1H-pyrazolo[3,4-b]pyridine-5-carboxamide], the IC50 is reported as 126 nM. `CCn1ncc2c(NC3CCOCC3)c(C(=O)NCc3ccc(S(C)(=O)=O)cc3)cnc21` [Example 100, 1-Ethyl-N-[4-(methylsulfonyl)benzyl]-4-(tetrahydro-2H-pyran-4-ylamino)-1H-pyrazolo[3,4-b]pyridine-5-carboxamide] was tested, and the IC50 was 0.1 to 6.31 nM. `CCn1ncc2c(NC3CCOCC3)c(C(=O)NCc3nccs3)cnc21` [Example 109, 1-Ethyl-4-(tetrahydro-2H-pyran-4-ylamino)-N-(1,3-thiazol-2-ylmethyl)-1H-pyrazolo[3,4-b]pyridine-5-carboxamide] gave an IC50 of 12.6 to 100 nM. `CCn1ncc2c(NC3CCOCC3)c(C(=O)NC3Cc4ccccc4C3)cnc21` [Example 165, N-(2,3-Dihydro-1H-inden-2-yl)-1-ethyl-4-(tetrahydro-2H-pyran-4-ylamino)-1H-pyrazolo[3,4-b]pyridine-5-carboxamide] was tested, and the IC50 was 0.1 to 6.31 nM. `CCn1ncc2c(NC3CCOCC3)c(C(=O)NCc3ccc(OC)c(OC)c3)cnc21` [Example 167, N-(3,4-Dimethoxybenzyl)-1-ethyl-4-(tetrahydro-2H-pyran-4-ylamino)-1H-pyrazolo[3,4-b)pyridine-5-carboxamide] gave an IC50 of 0.1 to 6.31 nM. For `CCn1ncc2c(NC3CCOCC3)c(C(=O)NCc3cnn(C)c3)cnc21` [Example 178, 1-Ethyl-N-[(1-methyl-1H-pyrazo1-4-yl)methyl]-4-(tetrahydro-2H-pyran-4-ylamino)-1H-pyrazolo[3,4-b]pyridine-5-carboxamide], the IC50 was 12.6 to 100 nM. Work on `CCCn1ncc2c(NC3CCOCC3)c(C(=O)NCc3ccc(S(C)(=O)=O)cc3)cnc21` [Example 187, N-[4-(Methylsulfonyl)benzyl]-1-n-propyl-4-(tetrahydro-2H-pyran-4-ylamino)-1H-pyrazolo[3,4-b]pyridine-5-carboxamide] yielded an IC50 of 12.6 to 100 nM. In the case of `CCn1ncc2c(NC3CCOCC3)c(C(=O)NCc3ccccc3)c(C)nc21` [Example 196, N-Benzyl-1-ethyl-6-methyl-4-(tetrahydro-2H-pyran-4-ylamino)-1H-pyrazolo[3,4-b]pyridine-5-carboxamide], the IC50 is reported as 12.6 nM. `CCn1ncc2c(NC3CCCC(O)C3)c(C(=O)NCc3ccccc3)cnc21` (stereo not drawn) [Example 198, N-Benzyl-1-ethyl-4-[(3-hydroxycyclohexyl)amino]-1H-pyrazolo[3,4-b]pyridine-5-carboxamide] was tested, and the IC50 was 3.16 nM. `CCn1ncc2c(NC3CCC(=O)CC3)c(C(=O)NCc3ccccc3)cnc21` [Example 201, N-Benzyl-1-ethyl-4-[(4-oxocyclohexyl)amino]-1H-pyrazolo[3,4-b]pyridine-5-carboxamide] gave an IC50 of 0.1 to 6.31 nM. For `CCn1ncc2c(NC3CCC(=O)CC3)c(C(=O)NCc3ccc(C)cc3C)cnc21` [Example 260, N-[(2,4-dimethylphenyl)methyl]-1-ethyl-4-[(4-oxocyclohexyl)amino]-1H-pyrazolo[3,4-b]pyridine-5-carboxamide], the IC50 was 0.1 to 6.31 nM. With `CCn1ncc2c(NC3CCC(=O)CC3)c(C(=O)NCc3ccc(C)c(C)c3)cnc21` [Example 261, N-[(3,4-Dimethylphenyl)methyl]-1-ethyl-4-[(4-oxocyclohexyl)amino]-1H-pyrazolo[3,4-b]pyridine-5-carboxamide] the IC50 was 0.1 to 6.31 nM. `CCn1ncc2c(NC3CCC(=O)CC3)c(C(=O)NCc3ccc(OC)cc3)cnc21` [Example 263] was tested, and the IC50 was 0.1 to 6.31 nM. Compound `CCn1ncc2c(NC3CCC(=O)CC3)c(C(=O)NCc3ccc(N(C)C)cc3)cnc21` [Example 265, N-{[4-(Dimethylamino)phenyl]methyl}-1-ethyl-4-[(4-oxocyclohexyl)amino]-1H-pyrazolo[3,4-b]pyridine-5-carboxamide] has an IC50 of 0.1 to 6.31 nM. In the case of `CCn1ncc2c(NC3CCC(=O)CC3)c(C(=O)NCc3ccc(OC(F)F)cc3)cnc21` [Example 266, N-({4-[(Difluoromethyl)oxy]phenyl}methyl)-1-ethyl-4-[(4-oxocyclohexyl)amino]-1H-pyrazolo[3,4-b]pyridine-5-carboxamide], the IC50 is reported as 0.1 to 6.31 nM.
